# Experimental data from PMC6540285, “Evaluation of Protein Kinase Inhibitors with PLK4 Cross-Over Potential in a Pre-Clinical Model of Cancer” (International Journal of Molecular Sciences, 2019).
# Key:
# BT-16 cells = test: PrestoBlue Cell Viability assay; format: cell-based; settings: BT-16, read-out: PB: IC50 of the PrestoBlue Viability assay
# Description: (§1) Cell viability was assessed using the Presto Blue™ Cell Viability reagent (Thermo Fisher Scientific, Carlsbad, CA, USA) following the manufacturer’s instructions. Cells were plated in 96-well plates at the same densities described above for the proliferation assay. The fluorescence was measured after 24, 48, 72, and 96 h at concentrations ranging from 0.001 to 10 µM of the inhibitor. All assays were performed in triplicate.
# D283 cells = test: PrestoBlue Cell Viability assay; format: cell-based; settings: D283, read-out: PB: IC50 of the PrestoBlue Viability assay
# Description: as §1
# MON cells = test: PrestoBlue Cell Viability assay; format: cell-based; settings: read-out: PB: IC50 of the PrestoBlue Viability assay
# Description: as §1
# ABL1 E255K = ABL1 E255K (Homo sapiens, UniProt P00519, E255K); test: SelectScreen kinase profiling, ZLYTE; format: biochemical
# ALK = ALK (Homo sapiens, UniProt Q9UM73); test: SelectScreen kinase profiling, ZLYTE; format: biochemical
# AMPK (A1/B2/G1) = AMPK (A1/B2/G1) (Homo sapiens, UniProt Q13131); test: SelectScreen kinase profiling, LanthaScreen binding
# Sequence of AMPK (A1/B2/G1) (Q13131 whole entry): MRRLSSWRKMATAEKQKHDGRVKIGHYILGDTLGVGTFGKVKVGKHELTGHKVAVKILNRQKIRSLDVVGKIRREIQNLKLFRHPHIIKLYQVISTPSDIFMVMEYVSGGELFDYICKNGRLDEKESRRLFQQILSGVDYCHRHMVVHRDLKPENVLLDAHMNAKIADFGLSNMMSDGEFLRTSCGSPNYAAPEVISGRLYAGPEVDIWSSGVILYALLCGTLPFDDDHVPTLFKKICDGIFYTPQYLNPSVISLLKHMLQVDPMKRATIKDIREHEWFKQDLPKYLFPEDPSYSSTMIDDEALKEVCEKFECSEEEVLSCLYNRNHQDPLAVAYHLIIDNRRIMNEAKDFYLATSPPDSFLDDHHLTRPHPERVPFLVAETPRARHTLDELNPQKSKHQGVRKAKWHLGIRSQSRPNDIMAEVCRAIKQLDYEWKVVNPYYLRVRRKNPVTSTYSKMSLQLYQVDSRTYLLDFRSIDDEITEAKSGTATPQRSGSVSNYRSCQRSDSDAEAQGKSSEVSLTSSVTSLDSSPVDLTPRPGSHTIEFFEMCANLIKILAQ
# Sequence of AMPK (A1/B2/G1) (O43741 whole entry partner): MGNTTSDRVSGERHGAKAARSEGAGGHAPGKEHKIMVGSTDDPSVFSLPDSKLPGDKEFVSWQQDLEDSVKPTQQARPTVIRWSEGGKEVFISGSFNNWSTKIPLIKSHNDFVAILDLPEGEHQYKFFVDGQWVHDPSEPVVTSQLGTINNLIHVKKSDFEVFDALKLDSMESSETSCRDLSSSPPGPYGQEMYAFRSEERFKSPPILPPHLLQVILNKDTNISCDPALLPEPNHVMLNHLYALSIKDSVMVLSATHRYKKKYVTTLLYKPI
# Sequence of AMPK (A1/B2/G1) (P54619 whole entry partner): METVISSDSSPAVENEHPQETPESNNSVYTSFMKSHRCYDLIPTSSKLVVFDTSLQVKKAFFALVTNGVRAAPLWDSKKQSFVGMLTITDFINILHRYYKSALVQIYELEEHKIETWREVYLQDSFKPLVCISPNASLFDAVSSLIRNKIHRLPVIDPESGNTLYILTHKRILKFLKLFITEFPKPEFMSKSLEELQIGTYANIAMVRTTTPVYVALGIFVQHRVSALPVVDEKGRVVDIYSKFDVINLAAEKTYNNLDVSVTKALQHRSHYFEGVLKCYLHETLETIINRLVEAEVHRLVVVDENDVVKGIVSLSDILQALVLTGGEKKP
# AMPK (A2/B2/G1) = AMPK (A2/B2/G1) (Homo sapiens, UniProt P54646); test: as above
# AURKB (Aurora B) = AURKB (Aurora B) (Homo sapiens, UniProt Q96GD4); test: SelectScreen kinase profiling, ZLYTE; format: biochemical
# Sequence of AURKB (Aurora B) (Q96GD4 whole entry): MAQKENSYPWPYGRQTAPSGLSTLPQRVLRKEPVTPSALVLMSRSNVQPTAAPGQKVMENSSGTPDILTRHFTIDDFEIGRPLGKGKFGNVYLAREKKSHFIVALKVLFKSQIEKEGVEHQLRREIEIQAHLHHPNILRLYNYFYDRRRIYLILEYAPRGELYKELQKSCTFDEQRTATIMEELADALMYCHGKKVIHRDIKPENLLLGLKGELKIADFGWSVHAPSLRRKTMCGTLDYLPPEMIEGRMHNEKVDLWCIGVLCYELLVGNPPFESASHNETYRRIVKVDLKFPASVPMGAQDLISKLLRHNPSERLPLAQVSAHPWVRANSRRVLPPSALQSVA
# BRAF V599E = BRAF V599E (Homo sapiens, UniProt P15056, V600E); test: SelectScreen kinase profiling, ZLYTE; format: biochemical
# Sequence of BRAF V599E (P15056 416-766 V600E limits assumed): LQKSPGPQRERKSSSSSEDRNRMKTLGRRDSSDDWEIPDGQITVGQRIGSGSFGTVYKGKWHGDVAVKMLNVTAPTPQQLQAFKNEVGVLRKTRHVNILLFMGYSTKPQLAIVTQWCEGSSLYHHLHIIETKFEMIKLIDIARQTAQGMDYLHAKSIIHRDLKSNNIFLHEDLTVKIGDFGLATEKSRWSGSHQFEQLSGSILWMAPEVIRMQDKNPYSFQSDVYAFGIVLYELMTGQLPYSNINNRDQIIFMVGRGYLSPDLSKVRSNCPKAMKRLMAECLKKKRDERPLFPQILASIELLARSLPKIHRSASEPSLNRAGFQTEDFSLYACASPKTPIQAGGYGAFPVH
# CDC42 BPB (MRCKB) = CDC42 BPB (MRCKB) (Homo sapiens, UniProt Q9Y5S2); test: SelectScreen kinase profiling, ZLYTE; format: biochemical
# CDK1/cyclin B = CDK1/cyclin B (Homo sapiens, UniProt P06493); test: SelectScreen kinase profiling, ZLYTE; format: biochemical
# CDK11 (Inactive) = CDK11 (Inactive) (Homo sapiens, UniProt Q9BWU1); test: SelectScreen kinase profiling, LanthaScreen binding
# CDK11/cyclin C = CDK11/cyclin C (Homo sapiens, UniProt Q9BWU1); test: as above
# CDK9 (Inactive) = CDK9 (Inactive) (Homo sapiens, UniProt P50750); test: as above
# CDKL5 = CDKL5 (Homo sapiens, UniProt O76039); test: SelectScreen kinase profiling, ZLYTE; format: biochemical; settings: CDKL5, 10 µM
# CLK3 = CLK3 (Homo sapiens, UniProt P49761); test: SelectScreen kinase profiling, ZLYTE; format: biochemical; settings: CLK3, 10 µM
# DYRK3 = DYRK3 (Homo sapiens, UniProt O43781); test: SelectScreen kinase profiling, ZLYTE; format: biochemical; settings: DYRK3, 10 µM
# Sequence of DYRK3 (O43781 whole entry): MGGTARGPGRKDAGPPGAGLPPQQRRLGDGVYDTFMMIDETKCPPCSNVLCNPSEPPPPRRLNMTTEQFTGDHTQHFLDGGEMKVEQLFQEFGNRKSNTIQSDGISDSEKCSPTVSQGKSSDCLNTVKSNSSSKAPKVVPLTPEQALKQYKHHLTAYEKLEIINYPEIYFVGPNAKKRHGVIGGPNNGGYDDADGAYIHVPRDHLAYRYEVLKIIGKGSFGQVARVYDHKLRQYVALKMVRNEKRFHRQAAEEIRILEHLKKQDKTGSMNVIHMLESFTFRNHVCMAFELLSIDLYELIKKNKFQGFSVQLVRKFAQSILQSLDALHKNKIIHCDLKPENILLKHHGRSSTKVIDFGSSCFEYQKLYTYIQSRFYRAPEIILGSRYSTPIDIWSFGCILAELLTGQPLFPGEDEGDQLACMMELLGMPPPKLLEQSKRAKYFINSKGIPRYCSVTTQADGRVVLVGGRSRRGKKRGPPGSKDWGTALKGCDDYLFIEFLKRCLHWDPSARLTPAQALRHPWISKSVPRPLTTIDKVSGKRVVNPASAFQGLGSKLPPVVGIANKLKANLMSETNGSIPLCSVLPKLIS
# EPHA1 = EPHA1 (Homo sapiens, UniProt P21709); test: SelectScreen kinase profiling, ZLYTE; format: biochemical; settings: EPHA1, 10 µM
# P450 2J2 = P450 2J2 (Homo sapiens, UniProt P51589)
# EPHA3 = EPHA3 (Homo sapiens, UniProt P29320); test: SelectScreen kinase profiling, LanthaScreen binding; settings: EPHA3, 10 µM
# P450 2C19 = P450 2C19 (Homo sapiens, UniProt P33261)
# FGFR2 N549H = FGFR2 N549H (Homo sapiens, UniProt P21802, N549H); test: SelectScreen kinase profiling, ZLYTE; format: biochemical
# Sequence of FGFR2 N549H (P21802 22-821 N549H): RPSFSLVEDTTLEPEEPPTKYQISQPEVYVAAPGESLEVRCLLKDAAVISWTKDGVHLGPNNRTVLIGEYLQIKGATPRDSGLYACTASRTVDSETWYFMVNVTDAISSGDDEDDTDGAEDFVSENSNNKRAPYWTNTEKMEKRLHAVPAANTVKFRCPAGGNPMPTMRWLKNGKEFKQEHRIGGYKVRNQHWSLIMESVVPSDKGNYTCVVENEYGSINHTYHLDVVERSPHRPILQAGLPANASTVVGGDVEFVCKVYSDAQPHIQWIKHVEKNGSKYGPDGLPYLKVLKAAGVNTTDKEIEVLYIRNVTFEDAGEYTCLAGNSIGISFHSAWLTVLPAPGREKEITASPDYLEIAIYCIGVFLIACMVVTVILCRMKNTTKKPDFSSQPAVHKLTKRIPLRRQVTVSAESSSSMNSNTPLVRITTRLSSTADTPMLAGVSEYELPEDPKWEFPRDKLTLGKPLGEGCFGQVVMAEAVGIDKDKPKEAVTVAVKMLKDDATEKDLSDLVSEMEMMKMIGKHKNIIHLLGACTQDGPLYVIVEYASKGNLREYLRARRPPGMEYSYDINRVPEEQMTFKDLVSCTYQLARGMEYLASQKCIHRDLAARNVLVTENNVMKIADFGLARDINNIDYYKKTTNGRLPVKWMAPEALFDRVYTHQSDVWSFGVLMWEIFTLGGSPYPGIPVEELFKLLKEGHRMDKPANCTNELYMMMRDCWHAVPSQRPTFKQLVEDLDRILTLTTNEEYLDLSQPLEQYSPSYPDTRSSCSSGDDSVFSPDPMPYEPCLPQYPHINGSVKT
# FLT3 ITD = test: SelectScreen kinase profiling, LanthaScreen binding; settings: 10 µM
# LRRK2 R1441C = LRRK2 R1441C (Homo sapiens, UniProt Q5S007, R1441C); test: SelectScreen kinase profiling, Adapta; format: biochemical
# LYN A = LYN A (Homo sapiens, UniProt P07948); test: SelectScreen kinase profiling, ZLYTE; format: biochemical
# MAP3K3 (MEKK3) = MAP3K3 (MEKK3) (Homo sapiens, UniProt Q99759); test: SelectScreen kinase profiling, LanthaScreen binding
# Sequence of MAP3K3 (MEKK3) (Q99759 whole entry): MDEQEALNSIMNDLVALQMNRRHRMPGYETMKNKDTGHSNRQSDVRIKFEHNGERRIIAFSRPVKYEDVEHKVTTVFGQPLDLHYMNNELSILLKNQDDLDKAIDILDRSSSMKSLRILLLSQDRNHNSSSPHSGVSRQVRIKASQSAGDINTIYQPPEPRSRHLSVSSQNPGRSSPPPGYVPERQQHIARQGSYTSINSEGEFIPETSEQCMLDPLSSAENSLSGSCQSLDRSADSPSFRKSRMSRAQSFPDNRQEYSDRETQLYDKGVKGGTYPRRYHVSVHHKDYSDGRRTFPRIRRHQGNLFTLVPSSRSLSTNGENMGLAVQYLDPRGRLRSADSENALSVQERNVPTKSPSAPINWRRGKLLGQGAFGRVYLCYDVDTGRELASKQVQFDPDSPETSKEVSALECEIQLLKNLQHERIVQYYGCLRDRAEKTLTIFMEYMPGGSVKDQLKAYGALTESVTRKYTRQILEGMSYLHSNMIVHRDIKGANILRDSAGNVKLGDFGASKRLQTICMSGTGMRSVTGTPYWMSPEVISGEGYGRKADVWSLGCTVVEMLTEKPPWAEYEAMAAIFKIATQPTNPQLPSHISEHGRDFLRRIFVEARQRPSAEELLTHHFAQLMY
# MAP4K3 (GLK) = MAP4K3 (GLK) (Homo sapiens, UniProt Q8IVH8); test: as above
# MAPK8 (JNK1) = MAPK8 (JNK1) (Homo sapiens, UniProt P45983); test: as above
# MAPKAPK5 (PRAK) = MAPKAPK5 (PRAK) (Homo sapiens, UniProt Q8IW41); test: SelectScreen kinase profiling, ZLYTE; format: biochemical
# NEK2 = NEK2 (Homo sapiens, UniProt P51955); test: SelectScreen kinase profiling, ZLYTE; format: biochemical; settings: NEK2, 10 µM
# Sequence of NEK2 (P51955 whole entry): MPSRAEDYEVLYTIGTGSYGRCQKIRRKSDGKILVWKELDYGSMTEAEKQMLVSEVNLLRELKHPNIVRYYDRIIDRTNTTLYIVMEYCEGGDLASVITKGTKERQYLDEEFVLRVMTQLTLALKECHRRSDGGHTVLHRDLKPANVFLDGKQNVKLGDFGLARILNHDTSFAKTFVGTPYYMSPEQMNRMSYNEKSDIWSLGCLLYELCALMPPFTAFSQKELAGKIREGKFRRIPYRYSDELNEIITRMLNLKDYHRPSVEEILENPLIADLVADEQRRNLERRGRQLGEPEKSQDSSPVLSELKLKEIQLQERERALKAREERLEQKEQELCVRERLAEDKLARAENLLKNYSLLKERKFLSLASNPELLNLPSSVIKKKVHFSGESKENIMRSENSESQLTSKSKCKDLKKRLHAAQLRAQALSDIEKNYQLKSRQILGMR
# NEK7 = NEK7 (Homo sapiens, UniProt Q8TDX7); test: SelectScreen kinase profiling, ZLYTE; format: biochemical; settings: NEK7, 10 µM
# NUAK1 (ARK5) = NUAK1 (ARK5) (Homo sapiens, UniProt O60285); test: SelectScreen kinase profiling, Adapta; format: biochemical
# Sequence of NUAK1 (ARK5) (O60285 whole entry): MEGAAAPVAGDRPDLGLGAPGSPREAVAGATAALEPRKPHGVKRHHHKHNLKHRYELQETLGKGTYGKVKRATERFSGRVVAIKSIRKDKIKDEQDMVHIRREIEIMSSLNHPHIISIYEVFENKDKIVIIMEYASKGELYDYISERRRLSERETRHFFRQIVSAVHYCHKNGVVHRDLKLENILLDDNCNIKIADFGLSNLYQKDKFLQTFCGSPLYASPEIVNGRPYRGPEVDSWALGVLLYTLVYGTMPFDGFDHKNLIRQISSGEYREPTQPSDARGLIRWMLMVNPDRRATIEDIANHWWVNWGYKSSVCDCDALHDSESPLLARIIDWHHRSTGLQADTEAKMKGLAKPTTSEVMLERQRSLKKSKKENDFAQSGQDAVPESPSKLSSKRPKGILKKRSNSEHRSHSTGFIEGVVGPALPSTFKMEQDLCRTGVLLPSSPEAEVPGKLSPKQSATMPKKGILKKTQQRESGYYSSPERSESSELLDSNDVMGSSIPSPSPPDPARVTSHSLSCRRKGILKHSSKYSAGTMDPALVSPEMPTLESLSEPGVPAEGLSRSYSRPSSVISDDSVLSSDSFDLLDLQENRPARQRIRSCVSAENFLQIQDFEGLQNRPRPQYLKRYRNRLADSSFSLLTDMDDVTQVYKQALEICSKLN
# PEAK1 = PEAK1 (Homo sapiens, UniProt Q9H792); test: SelectScreen kinase profiling, ZLYTE; format: biochemical; settings: PEAK1, 10 µM
# PRKCQ (PKC theta) = PRKCQ (PKC theta) (Homo sapiens, UniProt Q04759); test: SelectScreen kinase profiling, ZLYTE; format: biochemical
# RET M918T = RET M918T (Homo sapiens, UniProt P07949, M918T); test: SelectScreen kinase profiling, LanthaScreen binding
# RPS6KA2 (RSK3) = RPS6KA2 (RSK3) (Homo sapiens, UniProt Q15349); test: SelectScreen kinase profiling, ZLYTE; format: biochemical
# YES1 = YES1 (Homo sapiens, UniProt P07947); test: SelectScreen kinase profiling, ZLYTE; format: biochemical; settings: YES1, 10 µM
# EPHA2 = EPHA2 (Homo sapiens, UniProt P29317); test: SelectScreen kinase profiling, ZLYTE; settings: read-out: % Inhibition Avg
smiles,measurement,setting,value
O=C(c1ccc(/C=C/c2n[nH]c3ccccc23)cc1)N1CCNCC1 [KW-2449],IC50,BT-16 cells,1840 nM
same,IC50,D283 cells,> 10000 nM
same,IC50,MON cells,1740 nM
same,inhibition at 10 µM,ABL1 E255K,99%
same,inhibition at 10 µM,ALK,101%
same,inhibition at 10 µM,AMPK (A1/B2/G1),77%
same,inhibition at 10 µM,AMPK (A2/B2/G1),75%
same,inhibition at 10 µM,AURKB (Aurora B),102%
same,inhibition at 10 µM,BRAF V599E,60%
same,inhibition at 10 µM,CDC42 BPB (MRCKB),27%
same,inhibition at 10 µM,CDK1/cyclin B,88%
same,inhibition at 10 µM,CDK11 (Inactive),29%
same,inhibition at 10 µM,CDK11/cyclin C,53%
same,inhibition at 10 µM,CDK9 (Inactive),2%
same,inhibition at 10 µM,CDKL5,56%
same,inhibition at 10 µM,CLK3,66%
same,inhibition at 10 µM,DYRK3,86%
same,inhibition at 10 µM,EPHA1,99%
same,IC50,P450 2J2,249 nM
same,inhibition at 10 µM,EPHA3,61%
same,IC50,P450 2C19,9410 nM
same,inhibition at 10 µM,FGFR2 N549H,94%
same,% Inhibition Avg,FLT3 ITD,5%
same,inhibition at 10 µM,LRRK2 R1441C,100%
same,inhibition at 10 µM,LYN A,89%
same,inhibition at 10 µM,MAP3K3 (MEKK3),82%
same,inhibition at 10 µM,MAP4K3 (GLK),72%
same,inhibition at 10 µM,MAPK8 (JNK1),81%
same,inhibition at 10 µM,MAPKAPK5 (PRAK),87%
same,inhibition at 10 µM,NEK2,47%
same,inhibition at 10 µM,NEK7,7%
same,inhibition at 10 µM,NUAK1 (ARK5),100%
same,inhibition at 10 µM,PEAK1,91%
same,inhibition at 10 µM,PRKCQ (PKC theta),32%
same,inhibition at 10 µM,RET M918T,-40%
same,inhibition at 10 µM,RPS6KA2 (RSK3),96%
same,inhibition at 10 µM,YES1,95%
same,inhibition at 10 µM,EPHA2,98%
